“Also recorded” adds a separate entry of the source. Read-outs that look alike come from different tables or passages of the source.
Key:
S. mutans UA159 = assay: Biofilm inhibition, S. mutans UA159 (crystal violet, OD562); assay type: cell-based, Streptococcus mutans; conditions: for inhibition at 50 µM: UA159, 50 μM
Experimental: (§1) The bacterial strains, S. mutans UA159, S. gordonii DL1, and S. sanguinis SK36 were inoculated statically at 37° C. under 5% CO2 in Todd Hewitt Broth (THB) for 24 h. The cultures were then diluted with fresh THB (1:5) and reinoculated until optical density at 470 nm (OD470) reached 1. The optical density was read using BioTek 800TS microplate reader at 470 nm for bacterial growth and 562 nm for biofilm stained with crystal violet. Data was plotted in Graphpad Prism9.
(§2) Biofilm inhibition assays. Biofilm inhibition assays were performed in polystyrene microtiter 96 well plates. Stock solutions were prepared in chemically defined medium (CDM, JRH Biosciences, Lenexa, KS) with 2% sucrose, 1% bacteria cultures and various concentrations of the small molecule inhibitors to examine their activity against biofilm formation as described^69, 70. These stocks were assayed in 96 well plates in triplicate and incubated at 37° C. and 5% CO2 for 16 h. After reading optical density for bacterial growth, the plate was gently washed with water, dried, and stained with crystal violet, and then gently rinsed again with deionized water leaving the stained biofilm at the bottoms of the wells. Biofilms was dissolved in 200 μL of 30% acetic acid and absorbance at 562 nm was used read to determine biofilm biomass. Each assay was carried out at least in triplicate. Biofilm inhibitory concentration (IC50) of the compounds was determined by serial dilutions.
(§3) All bacterial strains (S. mutans UA159, S. gordonii DL1, and S. sanguinis SK36) were inoculated statically at 37° C. under 5% CO2 environment in Todd Hewitt Broth (THB) for 24 h^[61]. The cultures were then diluted with fresh THB (1:5) and reinoculated until the optical density at 470 nm reaches 1. The optical density was read using BioTek 800 TS absorbance reader at 470 nm for bacterial growth and 562 nm for biofilm stained with crystal violet. Data was plotted in Prism 10.0.2.
Biofilm inhibition assays were performed in polystyrene microtiter 96-well plates. Stock solutions were prepared in chemically defined medium (CDM) with 1% sucrose, 1% bacteria cultures and various concentrations of the small molecule inhibitors to examine their activity against biofilm formation as described^[62, 63]. These stocks were assayed in 96 well plates in triplicate and incubated at 37° C. and 5% CO2 for 16 h. After reading optical density for bacterial growth, the plate was washed, dried, and stained with 0.1% crystal violet which was again rinsed well with deionized water leaving the stained biofilm at the bottoms of the wells. This biofilm was dissolved in 200 μL of 30% acetic acid and absorbance at 562 nm was read to determine amount of biofilm formation. Each assay was carried out at least in triplicate. Biofilm inhibitor concentration (IC50) of the compounds was determined by serial dilutions from 0 μM-50 μM (1% DMSO).

S. gordonii DL1 = assay: Commensal biofilm inhibition, S. gordonii DL1 (crystal violet, OD562); assay type: cell-based, Streptococcus gordonii; conditions: for S. gordonii biofilm: 25 μM
Experimental: as §1, §2
as §3, with “The cultures were then diluted with fresh THB (1:5) and reinoculated until the optical density at 470 nm reaches 1.” left out, “Data was plotted in Prism 10.0.2.” left out
Biofilm inhibition assays were performed in polystyrene microtiter 96-well plates. […] After reading optical density for bacterial growth, the plate was washed, dried, and stained with 0.1% crystal violet which was again rinsed well with deionized water leaving the stained biofilm at the bottoms of the wells. […]

S. sanguinis SK36 = assay: Planktonic growth, S. sanguinis SK36 (OD470); assay type: cell-based, Streptococcus sanguinis
Experimental: as §1
(§4) S. mutans, S. gordonii, and S. sanguinis growth assays. Effects of compounds on S. mutans and commensal bacterial growth were evaluated using the growth assay as described^69. S. mutans UA159, S. gordonii DL1, S. sanguinis SK36, cultures were grown for 24 h under 5% CO2 at 37° C. These cultures were then reinoculated with fresh THB (1:5) until OD470=1 when the bacteria were ready to be used. Different concentrations of the inhibitor were assayed in chemically defined media (CDM) with 1% of the bacteria, 1% sucrose and 1% DMSO in 96 well plates. The 96 well plates were incubated under 5% CO2 at 37° C. for 16 h. Growth of the bacteria was read after 16 h at OD470. Each assay was carried out at least in triplicate.
as §3
as §4, with “Effects” for “S. mutans, S. gordonii, and S. sanguinis growth assays. Effects”, “PEHA5, PEHA6, HA5 or HA6” for “compounds”, “described^[62].” for “described^69.”, “PEHA5, PEHA6, HA5 or HA6” for “inhibitor”, “CDM” for “chemically defined media (CDM)”

GtfB = GtfB (Streptococcus mutans, UniProt P08987); assay: HA5/GtfB X-ray co-crystal structure; assay type: binding; conditions: catalytic domain of GtfB
Chain of GtfB (P08987 265-1143): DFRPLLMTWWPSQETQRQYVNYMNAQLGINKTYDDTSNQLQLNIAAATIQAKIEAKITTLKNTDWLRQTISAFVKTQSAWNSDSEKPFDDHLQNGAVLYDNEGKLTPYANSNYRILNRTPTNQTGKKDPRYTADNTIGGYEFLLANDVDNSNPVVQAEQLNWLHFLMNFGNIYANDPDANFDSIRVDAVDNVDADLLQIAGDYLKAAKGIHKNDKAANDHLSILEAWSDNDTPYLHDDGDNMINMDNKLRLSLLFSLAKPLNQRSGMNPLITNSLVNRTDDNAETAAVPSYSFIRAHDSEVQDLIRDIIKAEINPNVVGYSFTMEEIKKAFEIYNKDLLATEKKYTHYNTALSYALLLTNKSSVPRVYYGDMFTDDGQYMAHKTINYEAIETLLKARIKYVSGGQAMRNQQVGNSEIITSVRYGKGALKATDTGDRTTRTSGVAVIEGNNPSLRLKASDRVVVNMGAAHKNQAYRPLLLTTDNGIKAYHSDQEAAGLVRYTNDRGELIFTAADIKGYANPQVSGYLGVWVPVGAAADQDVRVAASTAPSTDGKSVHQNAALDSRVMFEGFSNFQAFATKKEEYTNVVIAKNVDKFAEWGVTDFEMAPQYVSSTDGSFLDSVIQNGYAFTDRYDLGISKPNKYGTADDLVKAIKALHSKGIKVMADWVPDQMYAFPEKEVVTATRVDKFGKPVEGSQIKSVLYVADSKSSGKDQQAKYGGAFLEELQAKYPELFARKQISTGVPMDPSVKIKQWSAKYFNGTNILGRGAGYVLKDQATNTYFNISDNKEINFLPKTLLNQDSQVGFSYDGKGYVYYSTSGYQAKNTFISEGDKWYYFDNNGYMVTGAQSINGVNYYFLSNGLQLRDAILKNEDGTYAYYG

[1] = HA5 loading into (PMAA)5 hydrogel (UV-visible spectroscopy); assay type: physicochemical; conditions: (PMAA)5 hydrogel cubes soaked in 5 mg/mL HA5 in methanol, 48 h
Experimental: Encapsulation of HA5 inside (PMAA)5 hydrogels microparticles. Compound HA5 was encapsulated in the (PMAA)5 hydrogel cubes through post-loading by soaking the hydrogels in 5 mg/mL solution of HA5 in methanol for 48 h in the dark (FIGS. 1.7A-B). The free, non-encapsulated HA5 was removed from particle solution by rinsing with HEPES buffer (pH=7.4) five times using centrifugation at 5000 rpm for 10 min. The HA5 quantification was carried out with UV-visible spectroscopy (NanoDrop One C, ThermoFisher) at λ=448 nm using an HA5 calibration curve. The drug solution was analyzed before and after the exposure to the hydrogel particles and the differences in the absorbance spectra were used to determine the loading of the drug into the hydrogel network. […] Freshly extracted, intact third molars with flat surfaces obtained from Dr. Nathaniel Lawson's lab (UAB School of Dentistry, IRB-300001291) were used in these studies. The AFM silicon probes NSG30 (NT-MDT, resonance frequency 240-440 kHz, force constant 22-100 N m^−1, tip radii is 10 nm, scan rate is 0.5 Hz) were used for imaging the tooth surfaces in tapping mode before and after hydrogel adhesion. […] The height of the dried hydrogel cubes was determined using section profiles, which indicated an average particle height of 1.3±0.2 μm. […]

[2] = Streptococcus mutans, UA159, read-out: Biofilm IC50
[3] = Streptococcus mutans, S. mutans UA159 biofilm, read-out: Biofilm IC50

| SMILES | S. mutans biofilm inhibition (S. mutans UA159; 25 μM) [%] | inhibition at 50 µM (S. mutans UA159; Streptococcus mutans) [%] | IC50 (S. mutans UA159; [2]) [µM] | inhibition at 25 µM (S. mutans UA159; Streptococcus mutans, UA159, read-out: S. mutans biofilm inhibition, 25 μM) [%] | IC50 (S. mutans UA159; [3]) [µM] | S. gordonii biofilm (S. gordonii DL1) | inhibition at 25 µM (S. gordonii DL1; Streptococcus gordonii, DL1) [%] | planktonic growth of S. sanguinis (S. sanguinis SK36; 25 μM) | growth of S. sanguinis (S. sanguinis SK36; 50 μM and 100 μM (100 μM)) | growth of S. sanguinis (S. sanguinis SK36; at biofilm inhibiting doses) | binding in HA5/GtfB co-crystal structure (GtfB) | loading capacity [1] | growth of S. sanguinis (S. sanguinis SK36; 25 μM and 50 μM) |
| --- | --- | --- | --- | --- | --- | --- | --- | --- | --- | --- | --- | --- | --- |
| O=C1/C(=C/c2cc(O)c(O)cc2O)Oc2ccccc21 [HA5, 2-[(2′,4′,5′-Trihydroxyphenyl)methylidene]-2,3-dihydro-1-benzofuran-3-one] | 90 | > 95 | 6.42 | 80 | 6.42 | minimal | ~20 | did not affect the planktonic growth | did not inhibit the growth; also recorded: does not inhibit the growth | without affecting the growth | binding in the catalytic site of GtfB; also recorded: does not show any covalent bond | 5.5×10^−3 ng of HA5 per particle |  |
| O=C1/C(=C/c2cc(O)c(O)c(O)c2)Oc2ccccc21 [HA6, 2-[(3′,4′,5′-Trihydroxyphenyl)methylidene]-2,3-dihydro-1-benzofuran-3-one] |  | > 95 | 18.9 |  | 18.9 | did not significantly reduce the biofilms |  |  |  | without affecting the growth |  |  | did not inhibit the growth |

— patent US20260315431A1, “NANOMATERIAL ENCAPSULATED BIOFILM INHIBITORS FOR DENTAL CARIES TREATMENT” (THE UAB RESEARCH FOUNDATION, priority 2023, published 2026)
